Where a name gives a salt, the structure may show the parent alone.
Assays:
[1] = test system: Erwinia amylovora; assay: In vivo control of Erwinia amylovora on apple blossoms (Example 30); details: concentration 0.025 % applied to blossoms; after 6-7 days
[2] = test system: Alternaria solani; assay: In vivo preventive test on Alternaria (tomatoes) (Example 11); details: rate 0.05%; 3 days after inoculation
[3] = test system: Phakopsora pachyrhizi; assay: In vivo preventive test on Phakopsora (soybeans) (Example 12); details: rate 0.05%; 7 days after inoculation
[4] = test system: Uromyces appendiculatus; assay: In vivo preventive test on Uromyces (beans) (Example 13); details: rate 0.05%; 10 days after inoculation
[5] = test system: Venturia inaequalis; assay: In vivo preventive test on Venturia (apples), equilibrated mixtures (Example 17); details: 10 days after inoculation
[6] = test system: Phytophthora infestans; format: in vivo; details: for fungicidal activity against Tomato Late Blight: 0.25, 0.50 and 1.00 weight %, FIG. 4; for Percent Control of Tomato Late Blight: 1.0 weight % in 50% ethanol
[7] = test system: Botrytis cinerea; assay: In vivo preventive test on Botrytis (beans) (Example 19); details: lesion size 3 days after inoculation
[8] = test system: Botrytis cinerea; assay: In vivo preventive test on Botrytis (beans) (Example 14); details: rate 0.2%; lesion size 3 days after inoculation
[9] = test system: Alternaria solani; assay: In vivo preventive test on Alternaria (tomatoes), equilibrated mixtures (Example 18); details: 3 days after inoculation
[10] = test system: Phytophthora infestans; format: in vivo; details: rates between 0.0625 and 2.0 weight %; FIG. 2A, FIG. 3
[11] = test system: Botrytis cinerea; format: in vivo; details: rates between 0.0625 and 1.0 weight %; FIG. 2B
[12] = test system: Sphaerotheca fuliginea; assay: In vivo preventive test on Sphaerotheca (cucumbers) (Example 9); details: rate 0.05%; 7 days after inoculation
Procedure: […] (Bacillus subtilis QST713 fermentation product) and the adjuvants […]-77 (polyalkyleneoxide modified heptamethyltrisiloxane), […]® (synthetic latex), NIMBUS® (paraffin mineral oil), […] (rapeseed oil methyl ester; castor oil ethoxylated) or MERO® (rapeseed oil methyl ester) were diluted in water to the desired concentrations and applied separately and in combination to young cucumber plants. After the spray coating had dried on, the plants were inoculated with an aqueous spore suspension of Sphaerotheca fuliginea. […] (Bacillus subtilis QST713 fermentation product) in combination with […]-77 (polyalkyleneoxide modified heptamethyltrisiloxane), […]® (synthetic latex), NIMBUS® (paraffin mineral oil), […] (rapeseed oil methyl ester; castor oil ethoxylated) or MERO® (rapeseed oil methyl ester) is greater than the calculated activity, i.e., a synergistic effect is present.

[13] = test system: Venturia inaequalis; assay: In vivo preventive test on Venturia (apples) (Example 10); details: rate 0.05%; 10 days after inoculation
[14] = test system: Sphaerotheca fuliginea; assay: In vivo preventive test on Sphaerotheca (cucumbers), equilibrated mixtures (Example 16); details: rate 0.015%; 7 days after inoculation

Compound `[H]/N=C(/N)N[C@H]1[C@H](O)[C@@H](O)[C@H](O[C@@H]2O[C@@H](C)[C@](O)(C=O)[C@H]2O[C@@H]2O[C@@H](CO)[C@H](O)[C@@H](O)[C@@H]2NC)[C@@H](N/C(N)=N\[H])[C@@H]1O` [Streptomycin sulfate] has an Efficacy in % [1] of 89%.

For `CCCCC(CC)COC(=O)CC(C(=O)OCC(CC)CCCC)S(=O)(=O)[O-].[Na+]` (stereo not drawn) [GEROPON ® DOS-PG], the “Efficacy in % Found” value [2] was 35%, the “Efficacy in % Found” value [3] was 0% and the “Efficacy in % Found” value [4] was 0%. The “Efficacy in % Found” value ([5]; rate 0.03%) was 38%, the “Efficacy in % Found” value ([5]; rate 0.06%) was 15% and the “Efficacy in % Found” value ([5]; rate 0.12%) was 28%.

In the case of `CCCCCCCCCO[C@@H]1O[C@H](CO)[C@@H](O)[C@H](O)[C@H]1O` [n-nonyl-B-D-glucoside], the “fungicidal activity against Tomato Late Blight” value (“fungicidal activity” for short) [6] is reported as “fungicidal activity was observed” and the “Percent Control of Tomato Late Blight” value [6] is reported as 77%.

In the case of sucrose monodecanoate, the “Percent Control of Tomato Late Blight” value [6] is reported as 25%.

For “C12-C14 lauryl dimethyl betaine [GENAGEN ® KB]”, the “Efficacy in % Found” value ([5]; rate 0.015%) was 15%, the “Efficacy in % Found” value ([7]; rate 0.06%) was 18% and the “Efficacy in % Found” value ([7]; rate 0.12%) was 39%.

“cocoamidopropyl betaine (C8-C18) [GENAGEN ® CAB 818]” was tested, and the “Efficacy in % Found” value ([5]; rate 0.015%) was 4%, the “Efficacy in % Found” value ([5]; rate 0.03%) was 68% and the “Efficacy in % Found” value ([5]; rate 0.06%) was 56%. For the same compound, the “Efficacy in % Found” value ([7]; rate 0.06%) was 29% and the “Efficacy in % Found” value ([7]; rate 0.12%) was 32%.

With sorbitan trioleate [SPAN ® 85] the “Percent Control of Tomato Late Blight” value [6] was 0%.

With `CCCCCCCCCCO[C@@H]1O[C@H](CO)[C@@H](O)[C@H](O)[C@H]1O` [n-decyl-B-D-glucoside] the “fungicidal activity” value [6] was “fungicidal activity was observed” and the “Percent Control of Tomato Late Blight” value [6] was 97%.

For “C8-10 alkyl polyglycoside [AGNIQUE ® PG8107G]”, the “Efficacy in % Found” value [8] was 0%.

For `CCCCCCCCCCCCOS(=O)(=O)[O-].[Na+]` [LOXANOL ® K12P, sodium dodecyl sulfate], the “Efficacy in % Found” value ([5]; rate 0.03%) was 11%, the “Efficacy in % Found” value ([5]; rate 0.06%) was 41% and the “Efficacy in % Found” value ([5]; rate 0.12%) was 73%. For the same compound, the “Efficacy in % Found” value ([9]; rate 0.015%) was 8%, the “Efficacy in % Found” value ([9]; rate 0.03%) was 0% and the “Efficacy in % Found” value ([9]; rate 0.06%) was 23%. The “Efficacy in % Found” value ([9]; rate 0.12%) was 30% and the “Efficacy in % Found” value ([7]; rate 0.12%) was 0%.

In the case of octyl glucose neopentyl glycol, the “fungicidal activity” value [6] is reported as “fungicidal activity was observed”.

In the case of sorbitan oleate [SPAN ® 80], the “Percent Control of Tomato Late Blight” value [6] is reported as 50%.

With sorbitan monolaurate [SPAN ® 20] the “control of Tomato Late Blight” value [10] was “the highest level of control was observed at 1.0 and 2.0 weight %”, the “control of Pepper Grey Mould” value [11] was “increasing control of the plant pathogen was observed as higher rates were applied” and the “Percent Control of Tomato Late Blight” value [6] was 75%.

For `CCCCCCCCCCCCO[C@@H]1O[C@H](CO)[C@@H](O)[C@H](O)[C@H]1O` [n-dodecyl-B-D-glucoside], the “fungicidal activity” value [6] was “fungicidal activity was observed” and the “Percent Control of Tomato Late Blight” value [6] was 96%.

“polyalkyleneoxide modified heptamethyltrisiloxane [SILWET ® L-77]” was tested, and the “Efficacy in % Found” value [12] was 0%, the “Efficacy in % Found” value [13] was 0% and the “Efficacy in % Found” value [2] was 16%. For the same compound, the “Efficacy in % Found” value [3] was 0% and the “Efficacy in % Found” value [4] was 0%.

“alkyl polyethylene glycol ether phosphoric acid mono/diester [HORDAPHOS ® 1306]” was tested, and the “Efficacy in % Found” value [14] was 0%, the “Efficacy in % Found” value ([5]; rate 0.06%) was 19% and the “Efficacy in % Found” value ([9]; rate 0.015%) was 30%. For the same compound, the “Efficacy in % Found” value ([9]; rate 0.03%) was 32%, the “Efficacy in % Found” value ([7]; rate 0.12%) was 0% and the “Efficacy in % Found” value ([7]; rate 0.25%) was 14%.

Source: patent US9745597B2, “Compositions and methods for controlling fungal and bacterial diseases in plants” (priority 2014, dated 2017)
